{
  "source": "patent US20250206773A1",
  "about": "“FORMS AND COMPOSITIONS OF SODIUM CHENODEOXYCHOLATE” (Syntis Bio, Inc., priority 2022, published 2025)",
  "assay_type_in_all_cases": "physicochemical",
  "key": {"[1]": {"experiment": "Storage of screening solids at RT, XRPD after storage", "description": "Form S2 was obtained from experiment VDS05 with EtOH after 12 days of diffusion at 50° C. […] The HPLC purity of the tested material was 92.1% at 212 nm. TG/DSC analysis of this material was consistent with that obtained from experiments SAS48, SDGR01, and SDGR07. XRPD analysis of this material is shown in FIG. 33, and the corresponding data summarized in Table S2: Form S8 was obtained in mixture with starting material ([…]) from experiment VDS12 with MEK after 12 days of diffusion at 50° C. […] The HPLC purity of the tested material was 93.7% at 212 nm. An XRPD spectrum of the material from experiment VDS12 is shown in FIG. 34A, as compared to NaCDC Form B, and the corresponding data are summarized in Table S8: The precipitate that formed in the water solution in the presence of acetone (as anti-solvent) was stored at RT for up to 3 weeks before it was subjected to thermal analysis. In this case, the majority of ASDS03 solid was dried at RT on filter paper up to 2 h and after that the recovered material was analyzed by XRPD. […] (Tonset) was observed. […] The precipitates that formed in the water solution in the presence of acetonitrile (as anti-solvent) from experiments ASDS04 and ASDS08 were stored at RT up to 24 days before being subjected to thermal analysis. In this case, the majority of solids from experiments ASDS04 and ASDS08 were dried at RT on filter paper for 1-2 h, and after that the recovered materials were analyzed by XRPD. […] The corresponding data for the initial material obtained from experiment […]) are summarized below: The precipitate that formed into the TFE solution in the presence of MTBE (as anti-solvent) was stored at RT for 22 days before being subjected to thermal analysis. In this case, the majority of the material from experiment ASDS19 was dried at RT on filter paper up to 2 h, and after that the recovered material was analyzed by XRPD. […] Considering that Form S12 was obtained as mixture with amorphous phase and with low crystallinity, there is a possibility that Form S12 is the same as Form S15. The XRPD data from experiment ASDS19 before storage for 22 days is summarized in Table S12, and the XRPD data from experiment ASDS19 after storage for 22 days is summarized in Table S15. The precipitate that formed into the TFE solution in the presence of DIPE (as anti-solvent) was stored at RT for 22 days before being subjected to thermal analysis. In this case, the majority of material obtained from experiment ASDS16 was dried at RT on filter paper up to 2 h, and after that, the recovered material was analyzed by XRPD. […] The precipitate that formed into the water solution in the presence of acetone (as anti-solvent) was stored at RT for 2 weeks before being subjected to thermal analysis. In this case, the majority of material obtained from experiment RAS11 was dried at RT on filter paper for 1-2 h, and after that the recovered material was analyzed by XRPD. […] The precipitate that formed into the TFE solution in the presence of iPrOAC (as anti-solvent) was stored at RT for 2 weeks before being subjected to thermal analysis. In this case, the majority of material from experiment RAS34 dried at RT on filter paper for 1-2 h, and after that the recovered material was analyzed by XRPD. […] The precipitate that formed into the TFE solution in the presence of EtOAc (as anti-solvent) was stored at RT for 2 weeks before being subjected to thermal analysis. In this case, the majority of material obtained from experiment RAS33 was dried at RT on filter paper for 1-2 h, and after that the recovered material was analyzed by XRPD. […] The precipitate that formed into the TFE solution in the presence of MTBE (as anti-solvent) was stored at RT for 2 weeks before being subjected to thermal analysis. In this case, the majority of the material obtained from experiment RAS36 that had been stored for 2 weeks was dried at RT on filter paper for 1-2 h, and after that the recovered material was analyzed by XRPD."}, "[2]": {"experiment": "Dynamic vapor sorption (DVS) hygroscopicity", "conditions": "25° C.", "description": "DVS measurements were performed with a SMS—DVS Intrinsic. The sample size was about 50 mg, accurately weighed. The measurement was performed at 25° C., the relative humidity (RH) range investigated was 40-90-0-90% RH with 10% RH steps. After each RH change, the mass of the sample was allowed to stabilize (waiting time 10 to 60 minutes, stabilization criterion ≤0.002 g for 10 minutes). The hygroscopicity of the sample was calculated as follows: [formula] • where: • W1: weight of sample at the start of the experiment (25° C. and 40% RH) • W2: weight of sample at 25° C. and 80% RH in the first sorption cycle High Pressure Liquid Chromatography (HPLC)"}, "[3]": {"experiment": "Exposure to moist air (RH 95%, room temperature), XRPD before/after", "conditions": "15-20 hours at 95% humidity", "description": "FIG. 4 is a series of XRPD patterns, showing NaCDC Form A before (thick line) and after (thin line) 15 hours of exposure to RH 95% at room temperature. FIG. 8 is a series of XRPD patterns, showing NaCDC Form B before (thick line) and after (thin line) 15 hours of exposure to RH 95% at room temperature."}, "[4]": {"experiment": "Intrinsic dissolution, USP rotating disk apparatus", "description": "For the intrinsic dissolution studies, the following HPLC method was used: [table] Intrinsic dissolution profiles of NaCDC Form A and Form B were determined from a drug disk of constant surface area using a USP rotating disk apparatus in phosphate buffer (pH 7.4) at 37° C. […] A typical apparatus consisted of a punch and a die, whose base is attached to a surface plate. […] The punch was then inserted in the die cavity and the test material was compressed with a hydraulic press. A non-disintegrating compact of the material was formed in the die cavity with a single face of defined area exposed on the bottom of the die. The die assembly was then attached to a shaft with a holder and the surface plate was removed. The shaft holding the die assembly was positioned into the dissolution medium at a distance not less than 1.0 cm from the bottom of the vessel. In this procedure, fluid flow was generated by the rotation of the die. The amount of material dissolved was measured as a function of time. In particular, the cumulative amount dissolved at each time point was corrected for losses due to sampling. […] Method parameters are summarized below: [table]"}},
  "data": [
    {"smiles": "C[C@H](CCC(=O)[O-])[C@H]1CC[C@H]2[C@@H]3[C@H](O)C[C@@H]4C[C@H](O)CC[C@]4(C)[C@H]3CC[C@]12C.[Na+]", "note": "[Form S12, sodium chenodeoxycholate]", "values": [
      {"measurement": "XRPD form after storage", "setting": "[1]; ASDS19 precipitate in TFE/MTBE, stored at RT for 22 days", "value": "transformed into Form S15"}
    ]},
    {"smiles": "C[C@H](CCC(=O)[O-])[C@H]1CC[C@H]2[C@@H]3[C@H](O)C[C@@H]4C[C@H](O)CC[C@]4(C)[C@H]3CC[C@]12C.[Na+]", "note": "[Form A, sodium chenodeoxycholate]", "values": [
      {"measurement": "hygroscopicity by DVS", "setting": "[2]", "value": "hygroscopic"},
      {"measurement": "weight change in the first sorption cycle (DVS)", "setting": "[2]; 40% RH to 80% RH", "value": 14.1, "unit": "%"},
      {"measurement": "effect of exposure to moist air (XRPD)", "setting": "[3]", "value": "partial amorphization and loss of crystallinity"},
      {"measurement": "solid form after compression (XRPD)", "setting": "[4]; 2 tons for 2 minutes", "value": "no change in solid form"},
      {"measurement": "IDR (intrinsic dissolution rate)", "setting": "[4]; USP phosphate buffer pH 7.4, 37° C., 100 rpm, disk 0.5024 cm^2", "value": 0.6959, "unit": "mg · min^−1 · cm^−2"}
    ]},
    {"smiles": "C[C@H](CCC(=O)[O-])[C@H]1CC[C@H]2[C@@H]3[C@H](O)C[C@@H]4C[C@H](O)CC[C@]4(C)[C@H]3CC[C@]12C.[Na+]", "note": "[Form S9-a, sodium chenodeoxycholate]", "values": [
      {"measurement": "XRPD form after storage", "setting": "[1]; ASDS04 precipitate in water/acetonitrile, stored at RT 22 days", "value": "remained unchanged"}
    ]},
    {"smiles": "C[C@H](CCC(=O)[O-])[C@H]1CC[C@H]2[C@@H]3[C@H](O)C[C@@H]4C[C@H](O)CC[C@]4(C)[C@H]3CC[C@]12C.[Na+]", "note": "[Form S2, sodium chenodeoxycholate]", "values": [
      {"measurement": "form on storage", "setting": "[1]; VDS05 material (EtOH vapor, 12 days, 50° C.), storage conditions at RT", "value": "remained stable"}
    ]},
    {"smiles": "C[C@H](CCC(=O)[O-])[C@H]1CC[C@H]2[C@@H]3[C@H](O)C[C@@H]4C[C@H](O)CC[C@]4(C)[C@H]3CC[C@]12C.[Na+]", "note": "[Form S13, sodium chenodeoxycholate]", "values": [
      {"measurement": "XRPD form after storage", "setting": "[1]; ASDS16 precipitate in TFE/DIPE, stored at RT for 22 days", "value": "remained unchanged"}
    ]},
    {"smiles": "C[C@H](CCC(=O)[O-])[C@H]1CC[C@H]2[C@@H]3[C@H](O)C[C@@H]4C[C@H](O)CC[C@]4(C)[C@H]3CC[C@]12C.[Na+]", "note": "[Form S6, sodium chenodeoxycholate]", "values": [
      {"measurement": "XRPD form after storage", "setting": "[1]; RAS33 precipitate in TFE/EtOAc, stored at RT for 2 weeks", "value": "transformed into Form S1"}
    ]},
    {"smiles": "C[C@H](CCC(=O)[O-])[C@H]1CC[C@H]2[C@@H]3[C@H](O)C[C@@H]4C[C@H](O)CC[C@]4(C)[C@H]3CC[C@]12C.[Na+]", "note": "[Form S8, sodium chenodeoxycholate]", "values": [
      {"measurement": "form on storage", "setting": "[1]; VDS12 material (MEK vapor, 50° C.), mixture with NaCDC Form B, storage at RT", "value": "remained stable"}
    ]},
    {"smiles": "C[C@H](CCC(=O)[O-])[C@H]1CC[C@H]2[C@@H]3[C@H](O)C[C@@H]4C[C@H](O)CC[C@]4(C)[C@H]3CC[C@]12C.[Na+]", "note": "[Form S15, sodium chenodeoxycholate]", "values": [
      {"measurement": "XRPD form after storage", "setting": "[1]; RAS36 precipitate in TFE/MTBE, stored at RT for 2 weeks", "value": "transformed into Form S14"}
    ]},
    {"smiles": "C[C@H](CCC(=O)[O-])[C@H]1CC[C@H]2[C@@H]3[C@H](O)C[C@@H]4C[C@H](O)CC[C@]4(C)[C@H]3CC[C@]12C.[Na+]", "note": "[Form S1, sodium chenodeoxycholate]", "values": [
      {"measurement": "XRPD form after storage", "setting": "[1]; ASDS03 precipitate in water/acetone, stored at RT up to 3 weeks, dried on filter paper", "value": "transformed into Form S14"},
      {"measurement": "XRPD form after storage", "setting": "[1]; RAS11 precipitate in water/acetone, stored at RT for 2 weeks", "value": "high tendency of amorphization"}
    ]},
    {"smiles": "C[C@H](CCC(=O)[O-])[C@H]1CC[C@H]2[C@@H]3[C@H](O)C[C@@H]4C[C@H](O)CC[C@]4(C)[C@H]3CC[C@]12C.[Na+]", "note": "[Form S9-b, sodium chenodeoxycholate]", "values": [
      {"measurement": "XRPD form after storage", "setting": "[1]; ASDS08 precipitate in water/acetonitrile, stored at RT 23 days", "value": "transformed into a form similar to Form S9-a"}
    ]},
    {"smiles": "C[C@H](CCC(=O)[O-])[C@H]1CC[C@H]2[C@@H]3[C@H](O)C[C@@H]4C[C@H](O)CC[C@]4(C)[C@H]3CC[C@]12C.[Na+]", "note": "[Form S3, sodium chenodeoxycholate]", "values": [
      {"measurement": "XRPD form after storage", "setting": "[1]; RAS34 precipitate in TFE/iPrOAc, stored at RT for 2 weeks", "value": "remained unchanged"}
    ]}
  ]
}
